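These data come from cells grown in 96-well plates and exposed to compound for 48 hours at five concentrations. GI50 = concentration required for 50% inhibition of growth. TGI denotes the concentration required for complete inhibition of growth.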
How the values were obtained:
Experiment in all cases: NCI tumour cell line growth inhibition, 48 h
U251 CNS = system: U251 CNS
HOP-92 NSCLC = system: HOP-92 NSCLC
CAKI-1 renal = system: CAKI-1 renal
SK-OV-3 ovarian = system: SK-OV-3 ovarian
HS 578T breast = system: HS 578T breast
LOX IMVI melanoma = system: LOX IMVI melanoma
TK-10 renal = system: TK-10 renal
UACC-62 melanoma = system: UACC-62 melanoma
SN12C renal = system: SN12C renal
MDA-MB-435 = system: MDA-MB-435
NCI/ADR-RES ovarian = system: NCI/ADR-RES ovarian
RPMI-8226 leukemia = system: RPMI-8226 leukemia
HCT-15 colon = system: HCT-15 colon
OVCAR-4 ovarian = system: OVCAR-4 ovarian
RXF 393 renal = system: RXF 393 renal
SK-MEL-2 melanoma = system: SK-MEL-2 melanoma
COLO 205 colon = system: COLO 205 colon
SK-MEL-28 melanoma = system: SK-MEL-28 melanoma
SF-295 CNS = system: SF-295 CNS
HCC-2998 colon = system: HCC-2998 colon
T-47D breast = system: T-47D breast
A549 NSCLC = system: A549 NSCLC
NCI-H23 lung = system: NCI-H23 lung
BT-549 breast = system: BT-549 breast
PC-3 prostate = system: PC-3 prostate
IGROV1 ovarian = system: IGROV1 ovarian
EKVX NSCLC = system: EKVX NSCLC
SR leukemia = system: SR leukemia
M14 melanoma = system: M14 melanoma
HL-60(TB) leukemia = system: HL-60(TB) leukemia
HOP-62 NSCLC = system: HOP-62 NSCLC
NCI-H522 lung = system: NCI-H522 lung
786-0 renal = system: 786-0 renal
KM12 colon = system: KM12 colon
SW-620 colon = system: SW-620 colon
MDA-MB-231 breast = system: MDA-MB-231 breast
DU-145 prostate = system: DU-145 prostate
CCRF-CEM leukemia = system: CCRF-CEM leukemia
OVCAR-5 ovarian = system: OVCAR-5 ovarian
UO-31 renal = system: UO-31 renal
HT29 colon = system: HT29 colon
MCF7 breast = system: MCF7 breast
HCT-116 colon = system: HCT-116 colon
MALME-3M melanoma = system: MALME-3M melanoma
SNB-19 CNS = system: SNB-19 CNS
A498 renal = system: A498 renal
NCI-H226 lung = system: NCI-H226 lung
ACHN renal = system: ACHN renal
SNB-75 CNS = system: SNB-75 CNS
MOLT-4 leukemia = system: MOLT-4 leukemia
K-562 leukemia = system: K-562 leukemia
OVCAR-8 ovarian = system: OVCAR-8 ovarian
SK-MEL-5 melanoma = system: SK-MEL-5 melanoma
SF-268 CNS = system: SF-268 CNS
NCI-H460 lung = system: NCI-H460 lung
OVCAR-3 ovarian = system: OVCAR-3 ovarian
UACC-257 melanoma = system: UACC-257 melanoma

CC12OC(CC(O)C1O)n1c3ccccc3c3c4c(c5c6ccccc6n2c5c31)C(=O)N(CCN1CCCC1)C4=O (centres undefined)
GI50 (U251 CNS): 0.488 µM
TGI (U251 CNS): 6.51 µM
GI50 (HOP-92 NSCLC): 3.85 µM
TGI (HOP-92 NSCLC): 10.3 µM
GI50 (CAKI-1 renal): 1.41 µM
TGI (CAKI-1 renal): 9.01 µM
GI50 (SK-OV-3 ovarian): 1.57 µM
TGI (SK-OV-3 ovarian): 6.99 µM
GI50 (HS 578T breast): 3.05 µM
TGI (HS 578T breast): 13.8 µM
GI50 (LOX IMVI melanoma): 0.308 µM
TGI (LOX IMVI melanoma): 1.45 µM
GI50 (TK-10 renal): 1.21 µM
TGI (TK-10 renal): 10.4 µM
GI50 (UACC-62 melanoma): 0.513 µM
TGI (UACC-62 melanoma): 2.58 µM
GI50 (SN12C renal): 0.577 µM
TGI (SN12C renal): 6.64 µM
GI50 (MDA-MB-435): 1.7 µM
TGI (MDA-MB-435): 8.11 µM
GI50 (NCI/ADR-RES ovarian): 6.31 µM
TGI (NCI/ADR-RES ovarian): 14.5 µM
GI50 (RPMI-8226 leukemia): 1.32 µM
TGI (RPMI-8226 leukemia): 4.43 µM
GI50 (HCT-15 colon): 1 µM
TGI (HCT-15 colon): 6.77 µM
GI50 (OVCAR-4 ovarian): 1.88 µM
TGI (OVCAR-4 ovarian): 12.3 µM
GI50 (RXF 393 renal): 1.23 µM
TGI (RXF 393 renal): 7.25 µM
GI50 (SK-MEL-2 melanoma): 5.16 µM
TGI (SK-MEL-2 melanoma): 12.9 µM
GI50 (COLO 205 colon): 0.377 µM
TGI (COLO 205 colon): 6.16 µM
GI50 (SK-MEL-28 melanoma): 2.24 µM
TGI (SK-MEL-28 melanoma): 9.7 µM
GI50 (SF-295 CNS): 0.291 µM
TGI (SF-295 CNS): 5.96 µM
GI50 (HCC-2998 colon): 3.96 µM
TGI (HCC-2998 colon): 10.8 µM
GI50 (T-47D breast): 0.868 µM
TGI (T-47D breast): 7.94 µM
GI50 (A549 NSCLC): 0.282 µM
TGI (A549 NSCLC): 6.17 µM
GI50 (NCI-H23 lung): 1.24 µM
TGI (NCI-H23 lung): 7.95 µM
GI50 (BT-549 breast): 3.85 µM
TGI (BT-549 breast): 11.5 µM
GI50 (PC-3 prostate): 1.79 µM
TGI (PC-3 prostate): 9.13 µM
GI50 (IGROV1 ovarian): 0.951 µM
TGI (IGROV1 ovarian): 10.8 µM
GI50 (EKVX NSCLC): 1.67 µM
TGI (EKVX NSCLC): 9.64 µM
GI50 (SR leukemia): 0.149 µM
TGI (SR leukemia): 6.08 µM
GI50 (M14 melanoma): 1.23 µM
TGI (M14 melanoma): 7.64 µM
GI50 (HL-60(TB) leukemia): 0.562 µM
TGI (HL-60(TB) leukemia): 8.7 µM
GI50 (HOP-62 NSCLC): 0.424 µM
TGI (HOP-62 NSCLC): 5.71 µM
GI50 (NCI-H522 lung): 0.606 µM
TGI (NCI-H522 lung): 5.4 µM
GI50 (786-0 renal): 1.29 µM
TGI (786-0 renal): 6.36 µM
GI50 (KM12 colon): 1.3 µM
TGI (KM12 colon): 8.68 µM
GI50 (SW-620 colon): 0.31 µM
TGI (SW-620 colon): 7.22 µM
GI50 (MDA-MB-231 breast): 3.38 µM
TGI (MDA-MB-231 breast): 11.2 µM
GI50 (DU-145 prostate): 1.06 µM
TGI (DU-145 prostate): 5.82 µM
GI50 (CCRF-CEM leukemia): 0.936 µM
TGI (CCRF-CEM leukemia): 10.7 µM
GI50 (OVCAR-5 ovarian): 2.25 µM
TGI (OVCAR-5 ovarian): 14.9 µM
GI50 (UO-31 renal): 1.5 µM
TGI (UO-31 renal): 9.95 µM
GI50 (HT29 colon): 0.434 µM
TGI (HT29 colon): 7.07 µM
GI50 (MCF7 breast): 0.199 µM
TGI (MCF7 breast): 5.88 µM
GI50 (HCT-116 colon): 0.321 µM
TGI (HCT-116 colon): 6.35 µM
GI50 (MALME-3M melanoma): 1.3 µM
TGI (MALME-3M melanoma): 8.41 µM
GI50 (SNB-19 CNS): 1.25 µM
TGI (SNB-19 CNS): 9.29 µM
GI50 (A498 renal): 1.5 µM
TGI (A498 renal): 7.5 µM
GI50 (NCI-H226 lung): 1.42 µM
TGI (NCI-H226 lung): 11.4 µM
GI50 (ACHN renal): 0.336 µM
TGI (ACHN renal): 2.34 µM
GI50 (SNB-75 CNS): 0.879 µM
TGI (SNB-75 CNS): 6.71 µM
GI50 (MOLT-4 leukemia): 0.197 µM
TGI (MOLT-4 leukemia): 16.5 µM
GI50 (K-562 leukemia): 0.68 µM
TGI (K-562 leukemia): 19.4 µM
GI50 (OVCAR-8 ovarian): 1.1 µM
TGI (OVCAR-8 ovarian): 9.12 µM
GI50 (SK-MEL-5 melanoma): 1.22 µM
TGI (SK-MEL-5 melanoma): 7.12 µM
GI50 (SF-268 CNS): 0.789 µM
TGI (SF-268 CNS): 8.47 µM
GI50 (NCI-H460 lung): 0.161 µM
TGI (NCI-H460 lung): 1.06 µM
GI50 (OVCAR-3 ovarian): 1.77 µM
TGI (OVCAR-3 ovarian): 8.95 µM
GI50 (UACC-257 melanoma): 3.54 µM
TGI (UACC-257 melanoma): 11.8 µM

Source: PubChem BioAssay (NCI)
